Source: patent publication US20240166641A1, “HETEROCYCLES AND USES THEREOF” (Kumquat Biosciences Inc., priority 2021, published 2024)

What was measured:
PTPN2 = target: T1, PTPN2 (Homo sapiens, UniProt P17706); test: Phosphatase activity assay (Bio-Biochem-DiFMUP), PTPN2; format: biochemical; conditions: DiFMUP substrate, room temperature
T1 sequence (P17706 1-415): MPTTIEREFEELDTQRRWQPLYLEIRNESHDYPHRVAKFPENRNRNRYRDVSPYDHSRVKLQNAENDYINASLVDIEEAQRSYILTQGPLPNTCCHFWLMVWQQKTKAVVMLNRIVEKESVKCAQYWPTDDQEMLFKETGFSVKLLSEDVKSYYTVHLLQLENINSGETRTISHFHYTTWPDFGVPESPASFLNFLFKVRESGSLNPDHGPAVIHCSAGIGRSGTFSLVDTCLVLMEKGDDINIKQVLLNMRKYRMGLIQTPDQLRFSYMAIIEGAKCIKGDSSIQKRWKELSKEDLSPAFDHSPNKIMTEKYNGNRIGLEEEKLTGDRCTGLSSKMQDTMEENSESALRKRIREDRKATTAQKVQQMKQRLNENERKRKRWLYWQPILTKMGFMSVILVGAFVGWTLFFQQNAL
From the text: (§1) The selectivity and potency of a small molecule PTPN2 inhibitor as provided herein (e.g., a derivative of Formula I, II, III, IV; or sub-formulae thereof) against one or more protein tyrosine phosphatase (PTP) enzymes, and specifically against PTPN2, can be assessed in various ways. The one or more PTP enzymes comprise Mycobacterium protein tyrosine phosphatase A (mPTPA), Mycobacterium protein tyrosine phosphatase B (mPTPB), PTPN1 (i.e., PTP1B), PTPN2 (i.e., TC-PTP), SHP-1, SHP-2, FAP-1, Meg2, HePTP, Laforin, VHX, VHR, LMWPTP, Cdcl4A, LAR, CD45, PTPRG, a fragment thereof, a variant thereof, and a combination thereof. Selectivity and potency of a small molecule PTPN2 inhibitor is evaluated using a PTP activity inhibition assay. The assay is performed using a buffer comprising 50 millimolar (mM) Bis-Tris (pH=6.3), 2 mM EDTA, and 5 mM N,N′-dimethyl-N,N′-bis(mercaptoacetyl)hydrazine (DMH). The assay is performed using a phosphated substrate, e.g., 10 mM fluorescein diphosphate (FDP) that is stored at −20° C. Alternatively or in addition to, the assay is performed using 10 mM DiFMUP as a phosphated substrate. Each PTP enzyme is diluted in an enzyme dilution buffer comprising 50 mM Bis-Tris (pH=6.3), 2 mM EDTA, 5 mM DMH, 20% (vol./vol.) glycerol, and 0.01% (vol./vol.) Triton X-100.
(§2) The assay is carried out at room temperature in 96 well plates. A reaction mixture of 170 microliter (μL) of the assay buffer comprising 10 μM FDP or DiFMIUP is added to each well. A 10 μL volume of (i) a compound disclosed herein (e.g., PTPN2 inhibitor) dissolved in DMSO at one of 10 concentrations from a serial dilution or (ii) DMSO alone for control is added to each well. The reaction is initiated by adding 20 μL of a PTP enzyme (e.g., PTPN2) that is diluted in the enzyme dilution buffer. The phosphatase activity of the PTP enzyme is assessed by monitoring appearance of a fluorescent product (e.g., fluorescein monophosphate (FMP) from FDP, or 6,8-difluoro-7-hydroxyl-4-coumarin (DiFMU) from DiFMUP) continuously for about 15 to 30 minutes, using the SpectraMax® Gemini™ XPS Microplate Spectrofluorometer (Molecular Devices®) with excitation of 440 nm and emission at 530 nm (cutoff filter at 525 nm) for FMP and excitation at 360 nm and emission at 450 nm (cutoff filter at 435 nm) for DiFMU. The rate (e.g., the initial rate) of FMP or DiFMU formation is plotted against the concentration of the small molecule PTPN2 inhibitor, and the data is fitted (e.g., using a 4-parameter equation) to determine the inflection point of the fit as the IC50 of the small molecule PTPN2 inhibitor for a specific enzyme. Table 6 summarizes the IC50 values of compounds disclosed herein against PTPN2 and PTPN1.

PTP1B = target: T2, PTP1B (Homo sapiens, UniProt P18031); test: Phosphatase activity assay (Bio-Biochem-DiFMUP), PTP1B; format: biochemical; conditions: DiFMUP substrate, room temperature
T2 sequence (P18031 1-435): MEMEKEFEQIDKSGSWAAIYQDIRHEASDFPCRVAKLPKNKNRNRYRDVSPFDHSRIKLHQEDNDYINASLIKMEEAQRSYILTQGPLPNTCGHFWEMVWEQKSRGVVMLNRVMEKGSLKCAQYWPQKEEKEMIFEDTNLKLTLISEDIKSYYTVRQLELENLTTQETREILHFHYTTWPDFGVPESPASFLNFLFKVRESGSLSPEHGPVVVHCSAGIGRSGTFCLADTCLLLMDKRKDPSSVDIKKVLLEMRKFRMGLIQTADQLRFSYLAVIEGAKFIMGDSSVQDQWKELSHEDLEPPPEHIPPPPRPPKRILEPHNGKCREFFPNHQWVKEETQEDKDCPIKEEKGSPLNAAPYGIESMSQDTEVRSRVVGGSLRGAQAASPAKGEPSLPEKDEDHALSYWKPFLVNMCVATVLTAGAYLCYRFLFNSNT
From the text: as §1, §2

Row | Compound | IC50 (PTPN2) | IC50 (PTP1B)
1 | CC(C)CCNc1ccc2cc(O)c(C3=CC(=O)NS3(=O)=O)cc2n1 [Compound 106, 5-(6-hydroxy-2-(isopentylamino)quinolin-7-yl)isothiazol-3(2H)-one 1,1-dioxide] | 1 to 10 µM | ≤ 1 µM
2 | CC(C)CCN(C)c1ccc2cc(O)c(N3CC(=O)NS3(=O)=O)cc2n1 [Compound 121] | 1 to 10 µM | 1 to 10 µM
3 | O=C1CN(c2cc3nc(OCCN4CCOCC4)ccc3cc2O)S(=O)(=O)N1 [Compound 131] | > 10 µM | > 10 µM
4 | CC(C)CCNc1cc2cc(N3C(C)C(=O)NS3(=O)=O)c(O)cc2n(C)c1=O (centres unmarked) [Compound 203] | 1 to 10 µM | 1 to 10 µM
5 | O=C1CN(c2c(O)cc3ccc(NCCc4ccccc4)nc3c2F)S(=O)(=O)N1 [Compound 125] | ≤ 1 µM | ≤ 1 µM
6 | CC(C)CCNC(=O)c1cc2cc(N3CC(=O)NS3(=O)=O)c(O)cc2s1 [Compound 132] | ≤ 1 µM | ≤ 1 µM
7 | CC(C)CCN1Cc2cc(C3=CC(=O)NS3(=O)=O)c(O)cc2N(C)C1=O [Compound 108, 5-(7-hydroxy-3-isopentyl-1-methyl-2-oxo-1,2,3,4-tetrahydroquinazolin-6-yl)isothiazol-3(2H)-one 1,1-dioxide] | > 10 µM | > 10 µM
8 | N#CCCCOc1ccc2cc(O)c(N3CC(=O)NS3(=O)=O)cc2n1 [Compound 175] | ≤ 1 µM | ≤ 1 µM
9 | COc1ccc2cc(O)c(N3CC(=O)NS3(=O)=O)cc2n1 [Compound 124] | ≤ 1 µM | ≤ 1 µM
10 | O=C1CN(c2cc3nc(NCCc4ccccn4)ccc3cc2O)S(=O)(=O)N1 [Compound 126] | ≤ 1 µM | ≤ 1 µM
11 | O=C1CN(c2cc3cc(C(=O)NCCc4ccccc4)sc3cc2O)S(=O)(=O)N1 [Compound 170] | ≤ 1 µM | ≤ 1 µM
12 | CC(C)CCNc1ccc2cc(O)c(N3CC(=O)NS3(=O)=O)cc2n1 [Compound 187] | > 10 µM | > 10 µM
13 | CC(C)CCNc1cnc2cc(O)c(N3CC(=O)NS3(=O)=O)cc2c1 [Compound 142, 5-(7-hydroxy-3-(isopentylamino)quinolin-6-yl)-1,2,5-thiadiazolidin-3-one 1,1-dioxide] | ≤ 1 µM | ≤ 1 µM
14 | COC(=O)c1cc2cc(N3CC(=O)NS3(=O)=O)c(OC)cc2s1 [Compound 102, methyl 5-(1,1-dioxido-4-oxo-1,2,5-thiadiazolidin-2-yl)-6-methoxybenzo[b]thiophene-2-carboxylate] | > 10 µM | > 10 µM
15 | O=C1CN(c2c(O)cc3sc(C(=O)NCCc4ccccc4)cc3c2F)S(=O)(=O)N1 [Compound 198] | ≤ 1 µM | ≤ 1 µM
16 | CC(C)CCN1Cc2cc(C3=CC(=O)NS3(=O)=O)c(O)cc2CC1=O [Compound 110] | 1 to 10 µM | 1 to 10 µM
17 | COc1cc2c(cc1N1CC(=O)NS1(=O)=O)C(=O)N(C)CC2 [Compound 101] | > 10 µM | > 10 µM
18 | CC(C)CN(C)Cc1cc(=O)n2cc(O)c(C3=CC(=O)NS3(=O)=O)cc2c1 [Compound 122] | > 10 µM | > 10 µM
19 | O=C1CN(c2cc3nc(-c4cnn(CC5CC5)c4)ccc3cc2O)S(=O)(=O)N1 [Compound 188] | ≤ 1 µM | ≤ 1 µM
20 | CC(C)CCn1cnc2cc(O)c(N3CC(=O)NS3(=O)=O)cc2c1=O [Compound 196] | > 10 µM | > 10 µM
21 | CC(C)CCCN1CCc2cc(O)c(N3CC(=O)NS3(=O)=O)cc2C1=O [Compound 105] | 1 to 10 µM | > 10 µM

Further lines, results first:

Row | IC50 (PTPN2) | IC50 (PTP1B) | Compound
22 | 1 to 10 µM | ≤ 1 µM | Cn1c(=O)c(NCC2(C#N)CC2)cc2cc(N3CC(=O)NS3(=O)=O)c(O)cc21 [Compound 202]
23 | ≤ 1 µM | ≤ 1 µM | COc1cc2c(F)c(N3CC(=O)NS3(=O)=O)c(O)cc2n(C)c1=O [Compound 146]
24 | ≤ 1 µM | ≤ 1 µM | Cn1c(=O)c(NCc2ccccc2)cc2cc(N3CC(=O)NS3(=O)=O)c(O)cc21 [Compound 177]
25 | ≤ 1 µM | ≤ 1 µM | CC(C)OCCNc1cc2cc(N3CC(=O)NS3(=O)=O)c(O)cc2n(C)c1=O [Compound 195]
26 | 1 to 10 µM | 1 to 10 µM | Cn1c(=O)c(N2CCCCC2)cc2cc(N3CC(=O)NS3(=O)=O)c(O)cc21 [Compound 169]
27 | ≤ 1 µM | ≤ 1 µM | Cn1c(=O)c(NCCC2CCCCC2)cc2cc(N3CC(=O)NS3(=O)=O)c(O)cc21 [Compound 141]
28 | ≤ 1 µM | ≤ 1 µM | Cn1c(=O)c(NCCC#N)cc2cc(N3CC(=O)NS3(=O)=O)c(O)cc21 [Compound 164]
29 | ≤ 1 µM | ≤ 1 µM | C[C@@H](Nc1cc2cc(N3CC(=O)NS3(=O)=O)c(O)cc2n(C)c1=O)c1ccccc1 [Compound 162]
30 | ≤ 1 µM | ≤ 1 µM | CCN1CCC(CNc2cc3cc(N4CC(=O)NS4(=O)=O)c(O)cc3n(C)c2=O)CC1 [Compound 171]
31 | 1 to 10 µM | 1 to 10 µM | CN(C)C1CN(c2cc3cc(N4CC(=O)NS4(=O)=O)c(O)cc3n(C)c2=O)C1 [Compound 172]
32 | 1 to 10 µM | ≤ 1 µM | C[C@H](Nc1cc2cc(N3CC(=O)NS3(=O)=O)c(O)cc2n(C)c1=O)c1ccccc1 [Compound 194]
33 | 1 to 10 µM | 1 to 10 µM | CCN1CCC(Nc2cc3cc(N4CC(=O)NS4(=O)=O)c(O)cc3n(C)c2=O)CC1 [Compound 166]
34 | 1 to 10 µM | ≤ 1 µM | Cn1c(=O)c(N2CCCC2)cc2cc(N3CC(=O)NS3(=O)=O)c(O)cc21 [Compound 134]
35 | > 10 µM | > 10 µM | O=C1CN(c2cc3nc(OCCN4CCC4)ccc3cc2O)S(=O)(=O)N1 [Compound 163]
36 | 1 to 10 µM | ≤ 1 µM | Cn1c(=O)c(NCCC2CC2)cc2cc(N3CC(=O)NS3(=O)=O)c(O)cc21 [Compound 168]
37 | ≤ 1 µM | ≤ 1 µM | CC(C)CC#Cc1cc2cc(N3CC(=O)NS3(=O)=O)c(O)cc2n(C)c1=O [Compound 181]
38 | 1 to 10 µM | ≤ 1 µM | CCN1CC(Nc2cc3cc(N4CC(=O)NS4(=O)=O)c(O)cc3n(C)c2=O)C1 [Compound 174]
39 | 1 to 10 µM | ≤ 1 µM | Cn1c(=O)c(O)cc2c(F)c(N3CC(=O)NS3(=O)=O)c(O)cc21 [Compound 184]
40 | ≤ 1 µM | ≤ 1 µM | CC(C)CCCc1cc2cc(N3CC(=O)NS3(=O)=O)c(O)cc2n(C)c1=O [Compound 152]
41 | > 10 µM | > 10 µM | CN1CCc2cc(O)c(N3CC(=O)NS3(=O)=O)cc2C1=O [Compound 104]
42 | ≤ 1 µM | ≤ 1 µM | CC(C)CCOc1cc2cc(N3CC(=O)NS3(=O)=O)c(O)cc2n(C)c1=O [Compound 160]
43 | ≤ 1 µM | ≤ 1 µM | Cn1c(=O)c(NCCN2CCOCC2)cc2cc(N3CC(=O)NS3(=O)=O)c(O)cc21 [Compound 127]
